Reference: patent publication US11780852B2, “Methods for treating Crohn's disease using 3-((1R,3s,5S)-3-((7-((5-methyl-1H-pyrazol-3-yl)amino)-1,6-naphthyridin-5-yl)amino)-8-azabicyclo[3.2.1]octan-8-yl)propanenitrile” (priority 2015, dated 2023)

Assays:
[1] = First in human study of safety, tolerability and pharmacokinetics in healthy subjects; type: in vivo; details: by comparison to other orally administered compounds
Method: Assay 9: First in Human Study to Evaluate the Safety, Tolerability and Pharmacokinetics in Healthy Subjects
The compound of Example 1 was evaluated in a double-blinded, randomized, placebo-controlled, single ascending dose (SAD) and multiple ascending dose (MAD) study of safety, tolerability, and pharmacokinetics in healthy subjects. Pharmacokinetic samples were collected up to 72 hours post the final dose in both the SAD study (after the first dose) and MAD study (after 14 days of once-daily dosing). The SAD study enrolled 5 cohorts and the MAD study enrolled 4 cohorts totaling 72 subjects, of which 71 completed the dosing period.
Plasma pharmacokinetic (PK) parameters were determined by non-compartmental analysis using WinNonLin Version 6.4.0 (Pharsight, St Louis, Mo.). The plasma PK parameter presented here is:
Cmax: maximum concentration in plasma

[2] = tested on: oxazolone-induced colitis; experiment: Mouse model of oxazolone-induced colitis; type: in vivo, BALB/C mice; details: PO, 1, 3, and/or 10 mg/kg BID (doses up to 10 mg/kg BID)
Method: Assay 7: Mouse Model of Oxazalone-Induced Colitis
Oxazolone-induced colitis is an experimental model that has a histological resemblance to human ulcerative colitis (Heller et al. Immunology, 2002, 17, 629-638). Adult BALB/C mice from Harlan were used in the assay. On day 1, animals were lightly anesthetized with isoflurane and the hairs between the shoulder were carefully removed before oxazolone (4%, 150 μL, 4:1 acetone:olive oil formulation) or vehicle solution was slowly applied for skin sensitization. Seven days after skin sensitization, the mice were fasted overnight, anesthetized with isoflurane inhalation, and a 1 mL syringe equipped with a 3.5-F catheter, filled with oxazolone solution, was inserted carefully about 4 cm into the colon of the mouse. Following insertion, 50 μL of the oxazolone solution (1%, 1:1 ethanol:water formulation) was injected very slowly (over 30 sec using an injection pump) into the colon. The catheter was removed and the mice were held vertically (head down) for 2 min to ensure that the entire oxazolone solution remained inside the colon. Drug treatment (PO, BID or TID) or vehicle was initiated a day prior to the oxazolone intrarectal (IR) challenge. Two-day post oxazolone intrarectal challenge, the Disease Activity Index (DAI) was assessed by treatment-blinded experimenters for each mouse according to the criteria score: stool consistency score (0, normal; 2, loose; 4, diarrhea), gross bleeding score (0, absence; 2, blood tinged; 4, presence), and weight loss score (0, none; 1, 1%-5%; 2, 5%-10^%; 3, 10%-20%; 4, more than 20%); DAI=average of (stool consistency score+gross bleeding score+weight loss score).
Selected compounds of the invention were tested in the assay. Efficacy in the model is evidenced by a decrease in DAI score as compared with the score from vehicle treated animals.

[3] = Pharmacokinetics in plasma and the GI tract in rats; type: in vivo, Sprague Dawley rats; details: oral dosing in preclinical species
Method: Assay 6: Pharmacokinetics in Plasma and the GI Tract in Rats and Dogs A test compound was dosed to male Sprague Dawley rats (n=3) as described in Assay 5. […] At all time points, the plasma concentration was below the limit of quantitation of 0.001 μg/mL.

[4] = tested on: splenic NK, B and T cells; experiment: Immunosuppression effects in mouse splenic natural killer (NK) cells; type: in vivo, Balb/C mice
Method: Assay 8: Immunosuppression Effects in Mouse Splenic Natural Killer (NK) Cells Depletion of mouse splenic cells is an experimental model of immunosuppression (Kudlacz et al., Am. J. of Transplantation, 2004, 4, 51-57). […] Adult male Balb/C mice (12-14 weeks of age) from Harlan were used for the study. […] Spleens were harvested 1 or 2 h post last dose and crushed immediately for cell subtype staining. Prior to fixation, fluorophore-labelled antibodies for CD19 (FITC; B cells), CD3e (PE; pan T cells) and DX5 (APC; NK cells) were incubated with splenocyte samples from each animal to allow for simultaneous, multiple subtype % analysis on the flow cytometer. The number of total spleen cells for each animal was measured by Scepter™ 2.0 Handheld Automated Cell Counter. The absolute number of lymphocyte subtype population (e.g., splenic B, T and NK cells) was calculated from the percentage of each subtype times total spleen cells for each animal. A one way ANOVA, with Dunnett's post hoc test, was used to compare the splenic lymphocytes number of the vehicle and test compound groups. The a level was set at p<0.05. Data were presented as the mean±SEM for each group.

Cc1cc(Nc2cc3ncccc3c(N[C@@H]3C[C@H]4CC[C@@H](C3)N4CCC#N)n2)n[nH]1 [Example 1, 3-((1R,3s,5S)-3-((7-((5-methyl-1H-pyrazol-3-yl)amino)-1,6-naphthyridin-5-yl)amino)-8-azabicyclo[3.2.1]octan-8-yl)propanenitrile]
oral bioavailability [1]: very low | DAI score as compared with vehicle treated animals [2]: statistically significant decrease | exposure throughout the gastrointestinal tract versus exposure in plasma [3]: significantly higher exposure | effect of immunosuppression ([4]; mice, same dose required for efficacy in the oxazolone model): minimal effect | B and T cell populations (spleen) ([4]; mouse, PO BID three days): No treatment effect | splenic NK cell counts ([4]; mouse, PO BID three days, tofacitinib 30 mg/kg, Example 1 up to 100 mg/kg): unaffected
